# Measurements published in EPA's ToxValDB 9.5.
# “And” between values parts separate entries of the source, which are not always exact repeats. Equal entries are not always repeated.
# Key:
# Rattus norvegicus [1] = conditions: for LOEL / NOEL: Hershberger; for LEL: uterotrophic, Active
# Rattus norvegicus [2] = tested on: Rattus norvegicus
# Rattus norvegicus [3] = conditions: subchronic; duration: 13 weeks; oral; diet; M/F; Fischer 344; Deaths + Clinical Observation: Soft stool, Diarrhea Redness around anus + Body Weight Changes: decrease + Food Consumption: decrease + Blood…
# [4] = duration: 10 days, oral, gavage, Sprague-Dawley, active + Antiandrogenic + anti-androgenic
# [5] = chronic, duration: 103 weeks, inhalation, Fischer 344
# [6] = duration: 5 days, oral, gavage, Sprague-Dawley, active + Antiandrogenic + decrease in AST wts
# [7] = duration: 10 days, oral, gavage, Fischer 344, active + Antiandrogenic + anti-androgenic + decrease in AST wts
# [8] = duration: 10 days, oral, gavage, Sprague-Dawley, Antiandrogenic + anti-androgenic + decrease in AST wts
# [9] = duration: 10 days, oral, gavage, Wistar, active + Antiandrogenic + anti-androgenic + decrease in AST wts
# [10] = chronic, duration: 103 weeks, oral, diet, Fischer 344
# [11] = short-term, duration: 14 days, oral, diet, Fischer 344
# [12] = subchronic, duration: 13 weeks, oral, diet, Fischer 344
# [13] = short-term, duration: 14 days, oral, diet, B6C3F1
# [14] = subchronic, duration: 13 weeks, oral, diet, B6C3F1
smiles,measurement,setting,value
CC(C)CCCCCCCOC(=O)c1ccccc1C(=O)OCCCCCCCC(C)C [Diisodecyl phthalate],LOEL,Rattus norvegicus [1]; [4],500 mg/kg-day
same,NOEL,Rattus norvegicus [1]; [4],100 mg/kg-day
C[C@H]1CCC[C@H](O)CCCCCc2cc(O)cc(O)c2C(=O)O1 [Zearalanol],LEL,"Rattus norvegicus [1]; duration: 3 days, oral",0.03 mg/day
CCCCN(CCCC)c1cccc(O)c1 [3-(Dibutylamino)phenol],NOEL,"Rattus norvegicus [1]; duration: 10 days, oral, gavage, Wistar, inactive + Negative + Negative + anti-androgenic + negative",300 mg/kg-day
O=[N+]([O-])c1ccc(O)cc1 [4-Nitrophenol],LEL,"Rattus norvegicus [1]; duration: 7 days, injection, subcutaneous",10 mg/kg-day
C=CC [1-Propene],LC50,"Rattus norvegicus [2]; acute, inhalation, Sprague-Dawley",> 112000 mg/m3
same,NOAEL,"Rattus norvegicus [2]; chronic, duration: 14 weeks, inhalation, Fischer 344",17200 mg/m3
same,LOAEL,Rattus norvegicus [2]; [5],17200 mg/m3
same,NOAEL,Rattus norvegicus [2]; [5],8610 mg/m3
same,NOAEL,"Rattus norvegicus [2]; chronic, duration: 104 weeks, inhalation, Sprague-Dawley",≥ 8610 mg/m3
same,NOAEL,"Rattus norvegicus [2]; short-term, duration: 4 weeks, inhalation, Fischer 344",17200 mg/m3
same,NOAEL,"Mus musculus; chronic, duration: 14 weeks, inhalation, B6C3F1",17200 mg/m3
same,NOAEL,"Mus musculus; chronic, duration: 78 weeks, inhalation, Swiss",≥ 8610 mg/m3
same,NOAEL,"Mus musculus; chronic, duration: 103 weeks, inhalation, B6C3F1",≥ 17200 mg/m3
"CC(=O)CC(=O)N(C)C [N,N-Dimethylacetoacetamide]",LD50,"Rattus norvegicus [2]; acute, oral, gavage",≥ 3200 mg/kg
same,LD50,"Mus musculus; acute, oral, gavage",≥ 3200 mg/kg
C#C[C@@]1(OC(=O)CC)C[C@@H]2CC[C@@H]3[C@H](CC[C@@]4(C)[C@H]3CC[C@]4(C#C)OC(=O)CC)[C@H]2C1 [Dinordrin I],LEL,"Rattus norvegicus [1]; duration: 3 days, oral",0.000156 mg/day
CC(C)C(=O)Nc1ccc([N+](=O)[O-])c(C(F)(F)F)c1 [Flutamide],LOEL,Rattus norvegicus [1]; [6],2.5 mg/kg-day
same,NOEL,Rattus norvegicus [1]; [6],0.6 mg/kg-day
same,NOEL,"Rattus norvegicus [1]; duration: 7 days, oral, gavage, Sprague-Dawley, active + Antiandrogenic + anti-androgenic + decrease in AST wts",0.6 mg/kg-day
same,LOEL,Rattus norvegicus [1]; [7],2.5 mg/kg-day and 3.2 mg/kg-day
same,NOEL,Rattus norvegicus [1]; [7],0.6 mg/kg-day
same,LOEL,Rattus norvegicus [1]; [8],1 mg/kg-day
same,NOEL,Rattus norvegicus [1]; [8],0.6 mg/kg-day
same,NOEL,"Rattus norvegicus [1]; duration: 10 days, oral, gavage, Sprague-Dawley, Neither + decrease in AST",0.6 mg/kg-day
same,NOEL,"Rattus norvegicus [1]; duration: 10 days, oral, gavage, Sprague-Dawley, active + Antiandrogenic + anti-androgenic + decrease in AST wts",0.6 mg/kg-day
same,NOEL,"Rattus norvegicus [1]; duration: 10 days, oral, gavage, Sprague-Dawley, active + Antiandrogenic + decrease in AST wts",0.6 mg/kg-day
same,LOEL,Rattus norvegicus [1]; [9],2.5 mg/kg-day and 3 mg/kg-day and 3.2 mg/kg-day
same,NOEL,Rattus norvegicus [1]; [9],0.6 mg/kg-day
COP(=S)(OC)Oc1ccc([N+](=O)[O-])c(C)c1 [Fenitrothion],LOEL,"Rattus norvegicus [1]; duration: 7 days, oral, gavage, Sprague-Dawley, active + Negative + Antiandrogenic + anti-androgenic",15 mg/kg-day
"Nc1ccc(C=Cc2ccc(N)cc2S(=O)(=O)[O-])c(S(=O)(=O)[O-])c1.[Na+].[Na+] [4,4'-Diamino-2,2'-stilbenedisulfonic acid, disodium salt]",LD50,"Rattus norvegicus [2]; acute, oral, gavage, Wistar",> 5000 mg/kg
same,LOAEL,Rattus norvegicus [2]; [10],1950 mg/kg-day
same,NOAEL,Rattus norvegicus [2]; [10],975 mg/kg-day
same,LOAEL,Rattus norvegicus [2]; [11],50000 ppm
same,NOAEL,Rattus norvegicus [2]; [11],25000 ppm
same,LOAEL,Rattus norvegicus [2]; [12],4800 mg/kg-day
same,NOAEL,Rattus norvegicus [2]; [12],2400 mg/kg-day
same,LOAEL,Mus musculus; [13],50000 ppm
same,NOAEL,Mus musculus; [13],25000 ppm
same,LOAEL,Mus musculus; [14],4920 mg/kg-day
same,NOAEL,Mus musculus; [14],2460 mg/kg-day
same,NOEL,Rattus norvegicus [3],< 600 mg/kg-day
O=C([O-])c1[nH]n(-c2ccc(S(=O)(=O)[O-])cc2)c(=O)c1N=Nc1ccc(S(=O)(=O)[O-])cc1.[Na+].[Na+].[Na+] [C.I. Acid Yellow 23],NOAEL (% diet),"Rattus norvegicus [2]; chronic, duration: 113 weeks, oral, diet",5
same,NOAEL,"Rattus norvegicus [2]; chronic, duration: 113 weeks, oral, diet, F",3350 mg/kg-day
same,NOAEL,"Rattus norvegicus [2]; chronic, duration: 113 weeks, oral, diet, M",2640 mg/kg-day
same,NOAEL,"Rattus norvegicus [2]; developmental, duration: 19 days, oral, gavage, Osborne-Mendel",> 1000 mg/kg-day
same,NOAEL (% diet),"Rattus norvegicus [2]; reproduction developmental, duration: 114 weeks, oral, diet",5
same,NOAEL,"Rattus norvegicus [2]; reproduction developmental, duration: 114 weeks, oral, diet, M",2640 mg/kg-day and 3350 mg/kg-day
same,NOAEL,"Rattus norvegicus [2]; reproduction developmental, duration: 19 days, oral, gavage, F, Osborne-Mendel",> 1000 mg/kg-day
same,NOAEL (% diet),"Mus musculus; subchronic, duration: 3 months, oral, diet, CD1",5
same,NOAEL,"Mus musculus; subchronic, duration: 3 months, oral, diet, F, CD1",9750 mg/kg-day
same,NOAEL,"Mus musculus; subchronic, duration: 3 months, oral, diet, M, CD1",8100 mg/kg-day
CCCCCCCCCC(=O)O[C@H]1CC[C@H]2[C@@H]3CCC4=CC(=O)CC[C@@H]4[C@H]3CC[C@]12C [Nandrolone decanoate],LOEL,"Rattus norvegicus [1]; duration: 10 days, injection, intramuscular, Wistar, active + Androgenic + androgenic",1.5 mg/kg-day
